From US10274456B2, “Method and system for sensing” (Ramot at Tel-Aviv University Ltd., priority 2013, dated 2019) come the findings set out here.

Type in all cases: cell-based, Human
Experiment [1] deals with Jurkat cells. Kind of experiment: Extracellular ROS level of drug-treated Jurkat cells measured with the nanowire biosensor. Conditions: t=6 hours, normalized by the number of live cells. The method, then:
For measurements of cellular metabolites/activity, cells were cultured in the chip, namely, in the culture compartment thereof (see, for example, FIG. 1A), while placing the chip in an incubator during measurements. A sample was introduced to the sensing compartment at 20 μl min^-1 by using a syringe pump. Human T lymphocytes, Jurkat (TIB-152, ATCC), were cultured and incubated at 37° C. under a humidified 5% CO2 atmosphere. The culture medium used was RPMI 1640 medium (52400, GIBCO) with 10% fetal bovine serum (FBS; 04-001-1A, Biological Industry) and 1% penicillin/streptomycin (15140, GIBCO). During experiments, cells were re-suspended in phenol red-free medium (11835-063, GIBCO) in the presence or absence of a drug, either methotrexate hydrate (MTX; […], SIGMA) or 2-deoxy-D-glucose (2DG; […], SIGMA), at a density of 1×10^6 cells/ml. Cellular samples were dispensed into the wells of the sensing chip (see FIGS. 1A and 1B) in an incubator. 24-hour monitoring of metabolic activity of drug-treated Jurkat cells by measuring extracellular ROS levels using the nanowire biosensor, was performed and the obtained data is presented in FIGS. 6A-G. Measured ROS levels were normalized by the number of live cells.

Experiment [2] has as its system Jurkat cells. The experiment in a line: Extracellular lactate level of drug-treated Jurkat cells (lactate oxidase, nanowire biosensor). The following applies: after 24 hours. The method, then:
For lactate sensing, 0.1 unit/ml of lactate oxidase (LOX; L0638, SIGMA) was added in phenol red-free medium to convert lactate to pyruvate and H2O2 before lactate reaches the FET array (as depicted in FIG. 1D).
During experiments, cells were re-suspended in phenol red-free medium (11835-063, GIBCO) in the presence or absence of a drug, either methotrexate hydrate (MTX; M8407, SIGMA) or 2-deoxy-D-glucose (2DG; D6134, SIGMA), at a density of 1×10^6 cells/ml.
The correlation between extracellular lactate level of 2DG-treated Jurkat cells and a resultant cell proliferation rate after 24 hours was investigated.

The subject of experiment [3] is Jurkat cells. The experiment in a line: pH sensing of drug-treated Jurkat cells (reductant-added medium). Conditions: compared with the control. From the text: A conversion of the modified FET into a pH sensor was achieved by using a reductant-added solution. After supplementing a culture medium with 0.1% v/v DEHA to reduce the modified FET surface, surface proton density varied by protonation or by deprotonation dominantly changes the measured current.
For pH sensing, 0.1% v/v DEHA was supplemented in the sensing medium to reduce the 9,10-anthraquinone monolayer on the FET surface to obtain 9,10-dihydroxyanthracene (see also FIG. 1d) and H2O2 simultaneously. Therefore, no significant amount of H2O2 in a DEHA-supplemented medium altered a measured signal. As a result, surface proton density, varied by protonation or by deprotonation, dominantly changes an acquired signal.

Experiment [4] relates to Jurkat cells. The experiment in a line: Cell proliferation rate / viability of drug-treated Jurkat cells (trypan blue count). The following applies: for cell viability: 24-hour viability observation. The method, then:
During experiments, cells were re-suspended in phenol red-free medium (11835-063, GIBCO) in the presence or absence of a drug, either methotrexate hydrate (MTX; […], SIGMA) or 2-deoxy-D-glucose (2DG; […], SIGMA), at a density of 1×10^6 cells/ml. Cell viability was estimated by using a hemocytometer to count trypan blue-stained cells. Relative cell count, presented in FIGS. 6B and 6E-6F, is a ratio of the cell count at t=24 hours to the initial cell count.

As for `O=CC[C@@H](O)[C@H](O)[C@H](O)CO` [2DG, 2-deoxy-D-glucose], the ROS level entry in the experiment with Jurkat cells [1] is reported as “noticeable decrease”. Besides, the cellular lactate secretion result with Jurkat cells [2] is “decreased”. Also, the “pH of cultured cells” value in the experiment on Jurkat cells [3] was “more basic than the control”. In addition, the cell viability entry in the experiment with Jurkat cells [4] is listed as “anti-proliferative activity”. Besides, the cell proliferation rate result in the experiment with Jurkat cells [4] (after 24 hours, relative cell count) is on record as “reduced proliferation rate”.

For the molecule `CN(Cc1cnc2nc(N)nc(N)c2n1)c1ccc(C(=O)N[C@@H](CCC(=O)O)C(=O)O)cc1` [MTX, methotrexate hydrate], in the experiment on Jurkat cells [1], the ROS level entry is given as “noticeable decrease”. Further, the cell viability entry with Jurkat cells [4] was “anti-proliferative activity”.
